Measured values: patent publication US6528517B1, “Synthesis of quinobenzoxazine analogues with topoisomerase II and quadruplex interactions for use as antineoplastic agents” (Board of Regents, The University of Texas System, priority 1998, dated 2003)

Columns and labels:
[1] = system: B16 melanoma; assay: Cancer cell growth inhibition assay (MTT); format: cell-based, murine; conditions: Mus musculus, B16
Description: Exponentially growing cells in 0.1 ml medium were seeded on Day 0 in 96-well microtiter plates. On Day 1, 0.1-ml aliquots of medium containing graded concentrations test agent were added in duplicate to the cell plates. After incubation at 37° C. in a humidified incubator, the plates were centrifuged briefly (1-2 min at 1000 rpm), and 100 μl of the growth medium was removed. Cell cultures were incubated with 50 μl of 3-(4,5-dimethylthiazyl-2-yl)-2,5-diphenyltetrazolium bromide MTT, 1 mg/ml in Dubecco's PBS for 4 h at 37° C. The resulting purple formazan precipitate was solubilized with 200 μl of 0.4 N HCl in isopropyl alcohol. Absorbance was quantitated using a Bio-Rad Model 3550 microplate reader at a test wavelength of 570 nm and a reference wavelength of 630 nm. Absorbance values were transferred to a 486 personal computer, and the IC50 values were determined using the computer program EZ-ED50 (Chen et al., 1993).

[2] = target: T1, topo II-DNA complex (Drosophila melanogaster, UniProt P15348); assay: Psorospermin competition study (DNA strand breakage assay); format: biochemical
T1 construct: purchased Amersham
T1 sequence (P15348 1-1447): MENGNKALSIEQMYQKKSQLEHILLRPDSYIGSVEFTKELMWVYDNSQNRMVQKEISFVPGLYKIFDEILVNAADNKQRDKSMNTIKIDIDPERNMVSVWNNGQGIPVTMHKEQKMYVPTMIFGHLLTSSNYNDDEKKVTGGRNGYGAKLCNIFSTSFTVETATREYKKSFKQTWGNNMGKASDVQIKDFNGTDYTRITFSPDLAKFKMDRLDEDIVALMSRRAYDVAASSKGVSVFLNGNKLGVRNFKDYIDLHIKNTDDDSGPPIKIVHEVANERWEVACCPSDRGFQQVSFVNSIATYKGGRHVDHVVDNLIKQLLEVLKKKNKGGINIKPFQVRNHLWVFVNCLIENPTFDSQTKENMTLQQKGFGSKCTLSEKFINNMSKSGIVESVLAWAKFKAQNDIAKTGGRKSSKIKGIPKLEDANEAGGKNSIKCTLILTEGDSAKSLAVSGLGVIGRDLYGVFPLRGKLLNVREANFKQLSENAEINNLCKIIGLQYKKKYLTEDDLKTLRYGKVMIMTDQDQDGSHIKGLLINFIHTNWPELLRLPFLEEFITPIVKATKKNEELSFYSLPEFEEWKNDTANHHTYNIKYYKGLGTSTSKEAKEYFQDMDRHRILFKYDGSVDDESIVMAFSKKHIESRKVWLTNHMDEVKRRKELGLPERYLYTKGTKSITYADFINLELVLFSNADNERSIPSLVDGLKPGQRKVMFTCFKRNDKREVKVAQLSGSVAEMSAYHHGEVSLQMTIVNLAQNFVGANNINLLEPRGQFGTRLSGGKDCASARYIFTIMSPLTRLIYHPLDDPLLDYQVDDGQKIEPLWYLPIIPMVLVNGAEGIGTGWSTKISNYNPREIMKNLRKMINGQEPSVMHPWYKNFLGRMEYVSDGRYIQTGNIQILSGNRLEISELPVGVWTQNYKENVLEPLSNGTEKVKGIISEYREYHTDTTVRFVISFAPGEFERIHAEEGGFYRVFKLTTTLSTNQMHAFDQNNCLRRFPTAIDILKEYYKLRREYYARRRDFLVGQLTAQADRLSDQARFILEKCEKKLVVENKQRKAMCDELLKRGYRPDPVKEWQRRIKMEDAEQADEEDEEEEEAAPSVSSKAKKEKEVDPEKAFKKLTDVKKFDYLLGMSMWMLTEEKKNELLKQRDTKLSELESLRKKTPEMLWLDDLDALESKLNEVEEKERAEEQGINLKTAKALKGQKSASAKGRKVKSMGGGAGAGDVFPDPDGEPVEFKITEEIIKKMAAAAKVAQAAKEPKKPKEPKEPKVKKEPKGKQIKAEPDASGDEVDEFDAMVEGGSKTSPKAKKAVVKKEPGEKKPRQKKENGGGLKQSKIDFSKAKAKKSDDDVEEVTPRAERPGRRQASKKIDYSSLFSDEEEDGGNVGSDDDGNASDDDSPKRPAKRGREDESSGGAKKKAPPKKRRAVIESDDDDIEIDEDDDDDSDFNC
Description: 5′^32P-labeled DNA was incubated with Drosophila topo II in the same buffer as the one in the topo II cleavage reaction in the presence of various amounts of either A-62176, Norfloxacin, or both. The incubation reactions took place at 30° C. for 10 min before 10 μM (final concentration) of psorospermin was added to the mixtures. The reactions were continued for an additional 5 min and then terminated by adding 5 μg of calf thymus DNA, followed by heating at 95° C. for 15 min. In the presence of piperidine, this procedure induces strand breakage at the drug modification sites (Hansen et al., 1996). The samples were subjected to phenol/chloroform extraction followed by ethanol precipitation.
In the presence of topo II, the reactivity of psorospermin is enhanced more than 40-fold with the guanine at the +4′ position at site B in FIG. 7 (Kwok et al., 1998a and 1998b). A DNA strand breakage assay was used to locate the position of alkylation of DNA by the epoxide of psorospermin upon intercalation to the base pairs between the +1 and +2 positions at site B within the topo II-DNA complex (Kwok et al., 1998a). Psorospermin has subsequently been used to probe the binding sites for m-AMSA (Kwok et al., 1998a). In the present study, this same assay was performed to determine the binding site of A-62176 on DNA in the presence of topo II.

With `N[C@H]1CCN(c2c(F)cc3c(=O)c(C(=O)O)cn4c3c2Oc2ccccc2-4)C1` [Compound A-62176, 1-(3-aminopyrrolidin-1-yl)-2-fluoro-4-oxo-4H-quino[2,3,4-i,j][1,4]benzoxazine-5-carboxylic acid, reference compound] the IC50 [1] was 170 ± 10 nM, the “psorospermin alkylation at site B (competition)” value ([2]; 0.5-10 μM drug, psorospermin, topo II present) was “decreased” and the “inhibition of psorospermin alkylation, in combination with Norfloxacin” value ([2]; after subtracting the enhancement by Norfloxacin alone) was “additive effect”.
